According to US8557995B2, “Solid dispersions containing kinase inhibitors” (AbbVie Inc., priority 2010, dated 2013):

Assay: solubility in water
Type: physicochemical
Details: pH 7.4, aqueous buffer
Text: Examples of such active ingredients are, for example, Biopharmaceutics Classification System (BCS) Class IV drug substances that are characterized by low solubility and low permeability (see “Waiver of in vivo bioavailability and bioequivalence studies for immediate-release solid oral dosage forms based on a biopharmaceutics classification system”, U.S. Department of Health and Human Services, Food and Drug Administration, Center for Drug Evaluation and Research (CDER), August 2000). It will be recognized that aqueous solubility of many compounds is pH-dependent; in the case of such compounds the solubility of interest herein is at a physiologically relevant pH, for example a pH of about 1 to about 8.

solubility: < 0.03 µg/mL
Compound: Nc1ncc(-c2cnn(CCO)c2)c2scc(-c3ccc(NC(=O)Nc4cccc(F)c4)cc3)c12 [N-(4-{4-amino-7-[1-(2-hydroxyethyl)-1H-pyrazol-4-yl]thieno[3,2-c]pyridin-3-yl}phenyl)-N′-(3-fluorophenyl)urea]
